{
  "source": "paper PMC12165799",
  "about": "“Antimicrobial peptide developed with machine learning sequence optimization targets drug resistant Staphylococcus aureus in mice” (The Journal of Clinical Investigation, 2025)",
  "key": {"[1]": {"system": "VRSA (S. aureus VRS1) biofilm", "experiment": "Biofilm viability assay on solid support (VRS1)", "format": "cell-based, Staphylococcus aureus", "settings": "S. aureus VRS1, 10 μg/ml, 24 h in PBS"}, "[2]": {"system": "S. aureus MW2 biofilm formation", "settings": "24 hours", "procedure": "349 Prevention of S. aureus MW2 biofilm formation\n350 We evaluated the ability of the citropin 1.1-derived peptides to inhibit biofilm formation\n351 following an established protocol with modifications (5). In short, we prepared exponential\n352 cultures of S. aureus MW2 (adjusted to OD600 = 0.01) in TSB medium (supplemented with 0.2%\n353 glucose) from overnight cultures. We added 90 µl of the bacterial culture to 10 µl of serially diluted\n354 10× peptide solution in flat-bottomed 96-well polystyrene microtiter plates (Cat no. Corning 3595,\nWe used TSB medium containing\n356 bacteria with water as the positive control, while TSB media with sterile water served as the\n357 negative control. After incubation, we carefully removed the TSB medium and washed the wells\n358 with PBS (Gibco, MD, USA) to remove loosely attached planktonic cells. We quantified the\n359 biomass by staining the biofilms with crystal violet following an established protocol and\n360 quantitated the concentration of peptide that inhibits 50% of biofilm formation (MBIC50)(8). We\n361 measured the live cell count of the biofilms using XTT dye [2,3-bis(2-methyloxy-4-nitro-5-\n362 sulfophenyl)-2H-tertazolium-5-carboxanilide] (ATCC, VA, USA)."}, "[3]": {"system": "MRSA (S. aureus MW2) biofilm", "experiment": "Biofilm viability assay on solid support (MW2)", "format": "cell-based, Staphylococcus aureus", "settings": "S. aureus MW2, 10 μg/ml, 24 h in PBS"}},
  "note": "Read-outs that look alike come from different tables or passages of the source.",
  "data": [
    {"smiles": "CN[C@H](CC(C)C)C(=O)N[C@H]1C(=O)N[C@@H](CC(N)=O)C(=O)N[C@H]2C(=O)N[C@H]3C(=O)N[C@H](C(=O)N[C@H](C(=O)O)c4cc(O)cc(O)c4-c4cc3ccc4O)[C@H](O)c3ccc(c(Cl)c3)Oc3cc2cc(c3O[C@@H]2O[C@H](CO)[C@@H](O)[C@H](O)[C@H]2O[C@H]2C[C@](C)(N)[C@H](O)[C@H](C)O2)Oc2ccc(cc2Cl)[C@H]1O", "note": "[Vancomycin, reference compound]", "values": [
      {"measurement": "Bacterial load of 24 hour established biofilm on solid membrane", "setting": "[1]; replicate 1", "result": 40000000},
      {"measurement": "Bacterial load of 24 hour established biofilm on solid membrane", "setting": "[1]; replicate 2", "result": 40000000},
      {"measurement": "Bacterial load of 24 hour established biofilm on solid membrane", "setting": "[1]; replicate 3", "result": 60000000},
      {"measurement": "Bacterial load of 24 hour established biofilm on solid membrane", "setting": "[1]; replicate 4", "result": 60000000},
      {"measurement": "Bacterial load of 24 hour established biofilm on solid membrane", "setting": "[1]; replicate 5", "result": 20000000},
      {"measurement": "Bacterial load of 24 hour established biofilm on solid membrane", "setting": "[1]; replicate 6", "result": 20000000},
      {"measurement": "Biofilm formation, biomass (crystal violet), percentage of untreated", "setting": "[2]; 4 μg/ml, replicate 1", "result": 8.955},
      {"measurement": "Biofilm formation, live-cell viability (XTT), percentage of untreated", "setting": "[2]; 4 μg/ml, replicate 1", "result": -0.6369},
      {"measurement": "Biofilm formation, biomass (crystal violet), percentage of untreated", "setting": "[2]; 4 μg/ml, replicate 2", "result": 10.0268},
      {"measurement": "Biofilm formation, live-cell viability (XTT), percentage of untreated", "setting": "[2]; 4 μg/ml, replicate 2", "result": -0.3259},
      {"measurement": "Biofilm formation, biomass (crystal violet), percentage of untreated", "setting": "[2]; 4 μg/ml, replicate 3", "result": 18.3626},
      {"measurement": "Biofilm formation, live-cell viability (XTT), percentage of untreated", "setting": "[2]; 4 μg/ml, replicate 3", "result": -0.3777},
      {"measurement": "Biofilm formation, biomass (crystal violet), percentage of untreated", "setting": "[2]; 8 μg/ml, replicate 1", "result": 8.8836},
      {"measurement": "Biofilm formation, live-cell viability (XTT), percentage of untreated", "setting": "[2]; 8 μg/ml, replicate 1", "result": -0.674},
      {"measurement": "Biofilm formation, biomass (crystal violet), percentage of untreated", "setting": "[2]; 8 μg/ml, replicate 2", "result": 11.1462},
      {"measurement": "Biofilm formation, live-cell viability (XTT), percentage of untreated", "setting": "[2]; 8 μg/ml, replicate 2", "result": -0.4592},
      {"measurement": "Biofilm formation, biomass (crystal violet), percentage of untreated", "setting": "[2]; 8 μg/ml, replicate 3", "result": 16.9574},
      {"measurement": "Biofilm formation, live-cell viability (XTT), percentage of untreated", "setting": "[2]; 8 μg/ml, replicate 3", "result": -0.4518},
      {"measurement": "Biofilm formation, biomass (crystal violet), percentage of untreated", "setting": "[2]; 16 μg/ml, replicate 1", "result": 9.955},
      {"measurement": "Biofilm formation, live-cell viability (XTT), percentage of untreated", "setting": "[2]; 16 μg/ml, replicate 1", "result": -0.5851},
      {"measurement": "Biofilm formation, biomass (crystal violet), percentage of untreated", "setting": "[2]; 16 μg/ml, replicate 2", "result": 11.9559},
      {"measurement": "Biofilm formation, live-cell viability (XTT), percentage of untreated", "setting": "[2]; 16 μg/ml, replicate 2", "result": -0.437},
      {"measurement": "Biofilm formation, biomass (crystal violet), percentage of untreated", "setting": "[2]; 16 μg/ml, replicate 3", "result": 14.6234},
      {"measurement": "Biofilm formation, live-cell viability (XTT), percentage of untreated", "setting": "[2]; 16 μg/ml, replicate 3", "result": -0.4148},
      {"measurement": "Biofilm formation, biomass (crystal violet), percentage of untreated", "setting": "[2]; 32 μg/ml, replicate 1", "result": 10.1935},
      {"measurement": "Biofilm formation, live-cell viability (XTT), percentage of untreated", "setting": "[2]; 32 μg/ml, replicate 1", "result": -0.4962},
      {"measurement": "Biofilm formation, biomass (crystal violet), percentage of untreated", "setting": "[2]; 32 μg/ml, replicate 2", "result": 10.384},
      {"measurement": "Biofilm formation, live-cell viability (XTT), percentage of untreated", "setting": "[2]; 32 μg/ml, replicate 2", "result": -0.5555},
      {"measurement": "Biofilm formation, biomass (crystal violet), percentage of untreated", "setting": "[2]; 32 μg/ml, replicate 3", "result": 13.4802},
      {"measurement": "Biofilm formation, live-cell viability (XTT), percentage of untreated", "setting": "[2]; 32 μg/ml, replicate 3", "result": -0.4073},
      {"measurement": "Bacterial load of 24 hour established biofilm on solid membrane", "setting": "[3]; replicate 1", "result": 160000000},
      {"measurement": "Bacterial load of 24 hour established biofilm on solid membrane", "setting": "[3]; replicate 2", "result": 18000000},
      {"measurement": "Bacterial load of 24 hour established biofilm on solid membrane", "setting": "[3]; replicate 3", "result": 28000000},
      {"measurement": "Bacterial load of 24 hour established biofilm on solid membrane", "setting": "[3]; replicate 4", "result": 40000000},
      {"measurement": "Bacterial load of 24 hour established biofilm on solid membrane", "setting": "[3]; replicate 5", "result": 20000000},
      {"measurement": "Bacterial load of 24 hour established biofilm on solid membrane", "setting": "[3]; replicate 6", "result": 60000000}
    ]}
  ]
}
